Measured values published in US10577317B2, “Crystal forms and production methods thereof” (Sunovion Pharmaceuticals Inc., priority 2017, dated 2020).
Values after ≈ are worked out from the molar mass of the structure shown. “Also recorded” adds a separate entry of the source. Where two headings read alike, the source gives them in different places. Values belong to the compound of their own block, whether it stands above or below them.

What was measured:
Assay type in all cases: physicochemical
[1] = Desolvation of ethyl acetate solvate crystal forms upon drying and heating; settings: drying and heating above about 30° C.
Procedure: For example, Examples 4A and 4B teach methods of producing crystalline (R)-amisulpride ethyl acetate solvate of Form B. The product of these examples upon drying above about 30° C., desolvates and converts to crystals of crystalline (R)-amisulpride free base of Form A and amorphous. Similarly, for example, Example 7 teaches a method producing crystalline (S)-amisulpride ethyl acetate solvate of Form B′. The product of these examples upon drying above about 30° C., desolvates and converts to crystals of crystalline (S)-amisulpride free base of Form A′ and amorphous. Although the fraction of the solvate that converts to Form A or Form A′ in the above examples is low, it is sufficient for obtaining seed crystals.
In various preferred embodiments, crystals of enantiomeric amisulpride ethyl acetate solvate are isolated by cooling the reaction mixture to below about 10° C., and preferably to about −10° C., until a slurry is formed. The slurry is slowly warmed and agitated for at least 1 hour at a temperature less than about 10° C., then filtered and washed with ethyl acetate at room temperature, and the resultant residue allowed to dry to isolate the desired crystalline enantiomeric amisulpride ethyl acetate solvate having a powder x-ray crystal pattern comprising peaks, in terms of 2-theta, at least at 6.4±0.2°, 8.3±0.2°, and 20.8±0.2°.

[2] = DVS water sorption isotherm, 25° C. scanned over 0 to 95% relative humidity (hygroscopicity); settings: DVS, 25° C., 0 to 95% relative humidity
Excerpt: In various embodiments, the hygroscopicity of crystal forms of racemic amisulpride, enantiomeric amisulpride, and enantiomeric amisulpride solvates are characterized by dynamic vapor sorption (DVS). DVS is a gravimetric technique that measures how much of a solvent is absorbed by a sample by varying the vapor concentration surrounding the sample (e.g., relative humidity) and measuring the change in mass. In the present application, DVS is used to generate water sorption isotherms, which represent the equilibrium amount of vapor sorbed as a function of steady state relative vapor pressure at a constant temperature.

[3] = Solubility (mg/mL) in water, buffers, simulated fluids and organic solvents (Table 1)

SMILES: CCN1CCC[C@@H]1CNC(=O)c1cc(S(=O)(=O)CC)c(N)cc1OC.CCOC(C)=O [Form B, (R)-4-Amino-N-[(1-ethyl-2-pyrrolidinyl)methyl]-5-(ethylsulfonyl)-2-methoxybenzamide ethyl acetate solvate]
desolvation of ethyl acetate solvate form [1]: desolvate upon drying and heating about 30 °C to convert to Form A; also recorded: desolvate to Form A and amorphous

hygroscopicity [2]: highly hygroscopic | maximum mass change in water sorption isotherms (n=4, σ=18.25) ([2]; n=4): 52±9%
SMILES: CCN1CCC[C@H]1CNC(=O)c1cc(S(=O)(=O)CC)c(N)cc1OC.O=C(O)C(O)C(O)C(=O)O [(S)-amisulpride D-tartrate, S-(−)-4-Amino-N-[(1-ethyl-2-pyrrolidinyl)methyl]-5-(ethylsulfonyl)-2-methoxybenzamide D-tartrate, reference compound]

SMILES: CCN1CCC[C@H]1CNC(=O)c1cc(S(=O)(=O)CC)c(N)cc1OC.CCOC(C)=O [Form B′, S-4-Amino-N-[(1-ethyl-2-pyrrolidinyl)methyl]-5-(ethylsulfonyl)-2-methoxybenzamide ethyl acetate solvate]
desolvation of ethyl acetate solvate form [1]: desolvate upon drying and heating about 30 °C; also recorded: desolvate to Form A′ and amorphous

solubility ([3]; acetone/MtBE 1:4, organic solvent or mixture, read-out: Solubility (mg/mL): Acetone/MtBE 1:4): 0.4 mg/mL (≈ 1080 µM) | solubility ([3]; acetone/MtBE 1:9, organic solvent or mixture, read-out: Solubility (mg/mL): Acetone/MtBE 1:9): 0.2 mg/mL (≈ 541 µM) | solubility ([3]; ethyl acetate, organic solvent or mixture, read-out: Solubility (mg/mL): Ethyl Acetate): 0.5 mg/mL (≈ 1350 µM) | solubility ([3]; water, solution pH 10.2 (Form A), 10.3 (Form A′), read-out: Solubility (mg/mL): Water): < 1 mg/mL
SMILES: CCN1CCCC1CNC(=O)c1cc(S(=O)(=O)CC)c(N)cc1OC (racemic) [crystalline racemic amisulpride, 4-amino-N-[(1-ethylpyrrolidin-2-yl)methyl]-5-ethylsulfonyl-2-methoxy-benzamide, reference compound]
